Source: patent US4221724A, “Antibiotic X-14766A” (Hoffmann-La Roche Inc., priority 1978, dated 1980)
Converted amounts (≈) assume the structure as drawn. “And” between values parts separate entries of the source, which are not always exact repeats. Identical values can stand only once. One block for each compound: values may come before it.

Tests used:
[1] = tested on: Treponema hyodysenteriae strain B78; assay: activity against Treponema hyodysenteriae, blood agar plate dilution MIC; type: cell-based; details: 48 hours, 42° C., anaerobic, in µg/mL
Excerpt: (§1) Testing for activity against Treponema hyodysenteriae, a cause of swine dysentery consisted of inoculation of blood agar plates containing a series of two and fourfold dilutions of antibiotic X-14766A and ipronidazole, an agent used in the treatment of swine dysentery, with tenfold dilutions of each of the T. hyodysenteriae strains (H 78, H 140, H 179).

[2] = tested on: Treponema hyodysenteriae strain B140; assay: as above; type: cell-based; details: 48 hours, 42° C., anaerobic, in µg/mL
Excerpt: as §1

[3] = tested on: Treponema hyodysenteriae strain B179; assay: as above; type: cell-based; details: Steers inoculation, 48 hours, 42° C., anaerobic, in µg/mL
Excerpt: as §1

[4] = tested on: Bacillus megaterium ATCC 8011; assay: antibacterial activity, Minimum Inhibitory Concentration (Table 4); type: cell-based; details: Priestia megaterium, ATCC8011
[5] = tested on: Bacillus subtilis Nrrl 558; assay: as above; type: cell-based; details: NRRL558
[6] = tested on: Bacillus sp. TA ATCC 27860; assay: as above; type: cell-based; details: ATCC27860
[7] = tested on: Bacillus sp. E ATCC 27859; assay: as above; type: cell-based; details: ATCC27859
Plasmodium bergei = assay: antimalarial activity against Plasmodium bergei in mice; type: in vivo
[8] = tested on: Clostridium septicum 503-34; assay: in vitro activity against anaerobic bacteria, two-fold serial broth dilution (Table 5); type: cell-based; details: 50334, trypticase soy broth, 37° C. overnight, read-out: Minimum Inhibitory Concentration
Protocol: (§2) *Two-fold serial broth dilution tests were carried out using trypticase
(§3) soy broth (TSB, BBL) as the test medium. All tests were incubated at
(§4) 37° C. overnight under anaerobic conditions.

[9] = tested on: Clostridium histolyticum 503-86; assay: as above; type: cell-based; details: Hathewaya histolytica, 50386, trypticase soy broth, 37° C. overnight, read-out: Minimum Inhibitory Concentration
Protocol: as §2, §3, §4

Sarcina lutea ATCC 9341 = assay: antibacterial activity, Minimum Inhibitory Concentration (Table 4); type: cell-based; details: Micrococcus luteus, ATCC9341
[10] = tested on: Mycobacterium phlei ATCC 355; assay: as above; type: cell-based; details: Mycolicibacterium phlei, ATCC355
[11] = tested on: rumen fluid (in vitro rumen fermentations); design: species or system bovine; details: for Percent Production of Control Fermantations: Rate of Gas Production / Percent Production of Control Fermantations: Total VFA(%): rumen fluid, 240 min
[12] = tested on: Streptomyces cellulosae ATCC 3313; assay: antibacterial activity, Minimum Inhibitory Concentration (Table 4); type: cell-based; details: ATCC3313
toxicity (LD50) in mice = details: mouse, in vivo
[13] = tested on: Staphylococcus aureus ATCC 6538P; assay: antibacterial activity, Minimum Inhibitory Concentration (Table 4); type: cell-based; details: ATCC6538P
[14] = tested on: Bacteroides fragilis ATCC 12290; assay: in vitro activity against anaerobic bacteria, two-fold serial broth dilution (Table 5); type: cell-based; details: ATCC12290, trypticase soy broth, 37° C. overnight, read-out: Minimum Inhibitory Concentration

MIC ([1]; Steers inoculation): 0.16 and 0.31
MIC ([1]; Syringe inoculation): 0.63
MIC ([2]; Steers inoculation): 0.16 and 0.31
MIC ([2]; Syringe inoculation): 0.63
MIC [3]: 0.16 and 0.31
Structure (SMILES): CC(C)c1ncc([N+](=O)[O-])n1C [Ipronidazole, ipronidazole, reference compound]

Structure (SMILES): CCOC(=O)C1OC(C2(C)OC3(OC4(C=CC3O)OC(C(C)C(=O)C(C)C(O)C(C)CC(C)c3c(Cl)cc(C)c(O)c3C(=O)O)C(C)CC4C)C(C)C2OC)CC1O (centres unmarked) [Antibiotic X-14766A]
MIC [4]: 0.08 µg/mL (≈ 0.0953 µM)
MIC [5]: 0.2 µg/mL (≈ 0.238 µM)
MIC ([1]; Steers inoculation): < 0.04 and 0.02
MIC ([1]; Syringe inoculation): 0.02 and 0.04
MIC ([2]; Steers inoculation): < 0.04 and 0.04
MIC ([2]; Syringe inoculation): 0.02 and 0.04
MIC [3]: < 0.04 and 0.02
MIC [6]: 0.08 µg/mL (≈ 0.0953 µM)
MIC [7]: 0.04 µg/mL (≈ 0.0477 µM)
ED50 (Plasmodium bergei): 2.5 mg/kg
MIC [8]: 0.0098 µg/mL (≈ 0.0117 µM)
MIC [9]: 0.0098 µg/mL (≈ 0.0117 µM)
MIC (Sarcina lutea ATCC 9341): 0.2 µg/mL (≈ 0.238 µM)
MIC [10]: 0.2 µg/mL (≈ 0.238 µM)
C3 /C2 + nC4 [11]: 0.501 and 0.488
Percent Production of Control Fermantations: Rate of Gas Production [11]: 90% and 89%
Percent Production of Control Fermantations: Total VFA(%) [11]: 150.1% and 138.7%
MIC [12]: 0.2 µg/mL (≈ 0.238 µM)
LD50 (toxicity (LD50) in mice; ip): 5.75 mg/kg
LD50 (toxicity (LD50) in mice; po): 350 mg/kg
MIC [13]: 0.2 µg/mL (≈ 0.238 µM)
MIC [14]: 0.195 µg/mL (≈ 0.232 µM)

Structure (SMILES): CCC(C(=O)O)C1CCC(C)C(C(C)C(O)C(C)C(=O)C(CC)C2OC3(C=CC(O)C4(CCC(C)(C5CCC(O)(CC)C(C)O5)O4)O3)C(C)CC2C)O1 (centres unmarked) [Salino]
C3 /C2 + nC4 [11]: 0.497 and 0.512
Percent Production of Control Fermantations: Rate of Gas Production [11]: 83% and 90%
Percent Production of Control Fermantations: Total VFA(%) [11]: 146.9% and 145.5%

Structure (SMILES): CC[C@@H](C(=O)O)[C@@H]1O[C@@H]([C@@H](C)[C@H](O)[C@H](C)C(=O)[C@H](CC)[C@H]2O[C@]3(C=C[C@@H](O)[C@]4(CC[C@@](C)([C@H]5CC[C@](O)(CC)[C@H](C)O5)O4)O3)[C@H](C)C[C@@H]2C)[C@@H](C)C[C@@H]1C [Narasin]
C3 /C2 + nC4 [11]: 00.583 and 0.581
Percent Production of Control Fermantations: Rate of Gas Production [11]: 86% and 88%

Structure (SMILES): CC[C@@]1([C@@H]2O[C@@H]([C@H]3O[C@@](O)(CO)[C@H](C)C[C@@H]3C)C[C@@H]2C)CC[C@H]([C@]2(C)CC[C@]3(C[C@H](O)[C@@H](C)[C@@H]([C@@H](C)[C@@H](OC)[C@H](C)C(=O)O)O3)O2)O1 [Monensin]
C3 /C2 + nC4 [11]: 0.565 and 0.575
Percent Production of Control Fermantations: Rate of Gas Production [11]: 89% and 85%
Percent Production of Control Fermantations: Total VFA(%) [11]: 105.3% and 110.7%
